According to patent US20040146987A1, “Rapidly degraded reporter fusion proteins” (Promega Corporation, priority 2002, published 2004):
Like-named read-outs stand apart in the source and are kept apart here.

How the values were obtained:
protein synthesis = test: inhibition of protein synthesis by cycloheximide; type: cell-based; conditions: 100 μg/ml
Experimental: The half-life of the protein encoded by plasmid pUbiq(Y)Luc 19 was determined in mammalian cells and compared to the half-lives of wild-type luciferase as well as fusion proteins comprising firefly luciferase and a mutant form of the C-ODC (Luc-PEST10). This was done by evaluating the luminescence emitted by cells that were transiently transfected with either plasmid pUbiq(Y)Luc19 or pwtLuc1 or pLuc-PEST 10, respectively, and then, for different periods of time, were exposed to the protein synthesis inhibitor cycloheximide. […] The estimated half-life of Ubiq(Y)Luc in these cells is about 170-200 minutes, which is far longer than the half-lives reported by Varshavsky (1992) for P-galactosidase containing a tyrosine residue at the N-terminus both in E. coli and S. cerevisiae (2 and 10 minutes, respectively).

COS-7 cells = test: cycloheximide treatment of transiently transfected COS-7 cells, luminescence of accumulated luciferase; type: cell-based, African green monkey; conditions: cycloheximide 100 μg/ml
Experimental: For transfection, cells were grown to confluence in T25 flasks (Falkon, Becton Dickinson, Oxford). Transfection was conducted in 1 ml of serum-free RPMI-1640 that was mixed with 8 μg of plasmid DNA and 20 μl of Lipofectamine™2000 (GIBCO BRL). CHO cells were incubated in the transfection media for 30 minutes, HeLa cells for 1 hour, and COS-7 cells for 5 hours. Following incubation, cells were trypsinized with Trypsin-EDTA (GIBCO BRL) and collected by centrifugation. […]
To determine firefly luciferase activity, cells were lysed by freeze/thawing. Lysate from each well (100 μl) was transferred into corresponding wells of opaque 96 well plates (Falkon, Becton Dickinson, Oxford) containing 100 μl of Bright-Glo™ Luciferase Assay System (Promega) and luminescence intensity was determined using MLX Microtiter Plate Luminometer (Dynex). The activity of Renilla luciferase was measured by mixing 40 μl samples with 100 μl of assay reagent from the Renilla Luciferase Assay System (Promega).
The half-life of the protein encoded by plasmid pUbiq(Y)Luc 19 was determined in mammalian cells and compared to the half-lives of wild-type luciferase as well as fusion proteins comprising firefly luciferase and a mutant form of the C-ODC (Luc-PEST10). […]

[1] = literature; cited from earlier work
S. cerevisiae = conditions: yeast / S. cerevisiae, cited from earlier work
E. coli = conditions: cited from earlier work

With `C[C@@H]1C[C@@H]([C@H](O)CC2CC(=O)NC(=O)C2)C(=O)[C@@H](C)C1` [cycloheximide] the “time to complete inhibition of protein synthesis” value (protein synthesis) was no more than 7.5 min.
For “wild-type luciferase: wild-type firefly luciferase encoded by plasmid pwtLuc1”, the half-life (COS-7 cells) is listed as “about 7 hours” and the half-life [1] is listed as “about 3.68 hours”.
In the case of β-galactosidase, the half-life (S. cerevisiae) is listed as 20 h, the half-life (S. cerevisiae; listed as wild-type P-galactosidase) is listed as greater than 20 h and the half-life (E. coli) is listed as “more than 10 hours”.
